Measured values from ChEMBL document CHEMBL5500341, “Discovery of pyrido[3,2-d]pyrimidin-6(5H)-one derivatives as checkpoint kinase 1 (CHK1) inhibitors with potent antitumor efficacy” (Eur J Med Chem, 2024).

How the values were obtained:
[1] = test system: MV4-11; assay: Antiproliferative activity against human MV4-11 cells assessed as inhibition of cell proliferation incubated for 72 hrs by CCK-8 assay; format: functional, cell-based; details: MV4-11, 72 h
[2] = Metabolic stability in human liver microsome assessed as parent compound remaining preincubated with compound for 10 mins followed by NADPH addition and measured immediately by LC-MS/MS analysis; format: ADME; details: liver microsomes, read-out: Stability
[3] = Metabolic stability in human liver microsome assessed as parent compound remaining preincubated with compound for 10 mins followed by NADPH addition and measured at 5 min by LC-MS/MS analysis; format: ADME; details: liver microsomes, time 15 min, read-out: Stability
[4] = Metabolic stability in human liver microsome assessed as parent compound remaining preincubated with compound for 10 mins followed by NADPH addition and measured at 15 min by LC-MS/MS analysis; format: ADME; details: liver microsomes, time 25 min, read-out: Stability
[5] = Metabolic stability in human liver microsome assessed as parent compound remaining preincubated with compound for 10 mins followed by NADPH addition and measured at 30 min by LC-MS/MS analysis; format: ADME; details: liver microsomes, time 40 min, read-out: Stability
[6] = Metabolic stability in human liver microsome assessed as parent compound remaining preincubated with compound for 10 mins followed by NADPH addition and measured at 60 min by LC-MS/MS analysis; format: ADME; details: liver microsomes, time 70 min, read-out: Stability
[7] = Metabolic stability in human liver microsome assessed as half life preincubated with compound for 10 mins followed by NADPH addition and measured up to 60 min by LC-MS/MS analysis; format: ADME; details: liver microsomes, time < 70 min
[8] = Metabolic stability in human microsome assessed as intrinsic clearance preincubated with compound for 10 mins followed by NADPH addition and measured up to 60 min by LC-MS/MS analysis; format: ADME; details: microsomes, time < 70 min, read-out: CLH
[9] = Metabolic stability in human liver microsome assessed as intrinsic clearance preincubated with compound for 10 mins followed by NADPH addition and measured up to 60 min by LC-MS/MS analysis; format: ADME; details: liver microsomes, time < 70 min, read-out: CLH
[10] = Initial plasma concentration in ICR mouse at 2 mg/kg, iv measured up to 24 hrs by LC-MS/MS analysis; format: ADME, organism-based
[11] = Cmax in ICR mouse at 2 mg/kg, iv measured up to 24 hrs by LC-MS/MS analysis; format: ADME, organism-based; details: in vivo
[12] = Cmax in ICR mouse at 10 mg/kg, po measured up to 24 hrs by LC-MS/MS analysis; format: ADME, organism-based; details: in vivo
[13] = Half life in ICR mouse at 2 mg/kg, iv measured up to 24 hrs by LC-MS/MS analysis; format: ADME, organism-based; details: in vivo
[14] = Half life in ICR mouse at 10 mg/kg, po measured up to 24 hrs by LC-MS/MS analysis; format: ADME, organism-based; details: in vivo
[15] = Tmax in ICR mouse at 2 mg/kg, iv measured up to 24 hrs by LC-MS/MS analysis; format: ADME, organism-based; details: in vivo
[16] = Tmax in ICR mouse at 10 mg/kg, po measured up to 24 hrs by LC-MS/MS analysis; format: ADME, organism-based; details: in vivo
[17] = AUC (0 to t) in ICR mouse at 2 mg/kg, iv measured up to 24 hrs by LC-MS/MS analysis; format: ADME, organism-based; details: in vivo
[18] = AUC (0 to t) in ICR mouse at 10 mg/kg, po measured up to 24 hrs by LC-MS/MS analysis; format: ADME, organism-based; details: in vivo
[19] = AUC (0 to infinity) in ICR mouse at 2 mg/kg, iv measured up to 24 hrs by LC-MS/MS analysis; format: ADME, organism-based; details: in vivo
[20] = AUC (0 to infinity) in ICR mouse at 10 mg/kg, po measured up to 24 hrs by LC-MS/MS analysis; format: ADME, organism-based; details: in vivo
[21] = MRT (0 to t) in ICR mouse at 2 mg/kg, iv measured up to 24 hrs by LC-MS/MS analysis; format: ADME, organism-based; details: in vivo
[22] = MRT (0 to t) in ICR mouse at 10 mg/kg, po measured up to 24 hrs by LC-MS/MS analysis; format: ADME, organism-based; details: in vivo
[23] = MRT (0 to infinity) in ICR mouse at 2 mg/kg, iv measured up to 24 hrs by LC-MS/MS analysis; format: ADME, organism-based; details: in vivo
[24] = MRT (0 to infinity) in ICR mouse at 10 mg/kg, po measured up to 24 hrs by LC-MS/MS analysis; format: ADME, organism-based; details: in vivo
[25] = Clearance in ICR mouse at 2 mg/kg, iv measured up to 24 hrs by LC-MS/MS analysis; format: ADME, organism-based; details: in vivo
[26] = Volume of distribution at steady state in ICR mouse at 2 mg/kg, iv measured up to 24 hrs by LC-MS/MS analysis; format: ADME, organism-based; details: in vivo, read-out: Vdss
[27] = Oral bioavailability in ICR mouse at 10 mg/kg measured up to 24 hrs by LC-MS/MS analysis; format: ADME, organism-based; details: in vivo
[28] = biological target: Serine/threonine-protein kinase Chk2 (Homo sapiens) (UniProt O96017); assay: Inhibition of CHK2 (unknown origin) at 500 nM relative to control
Chain of Serine/threonine-protein kinase Chk2 (Homo sapiens) (O96017 whole entry): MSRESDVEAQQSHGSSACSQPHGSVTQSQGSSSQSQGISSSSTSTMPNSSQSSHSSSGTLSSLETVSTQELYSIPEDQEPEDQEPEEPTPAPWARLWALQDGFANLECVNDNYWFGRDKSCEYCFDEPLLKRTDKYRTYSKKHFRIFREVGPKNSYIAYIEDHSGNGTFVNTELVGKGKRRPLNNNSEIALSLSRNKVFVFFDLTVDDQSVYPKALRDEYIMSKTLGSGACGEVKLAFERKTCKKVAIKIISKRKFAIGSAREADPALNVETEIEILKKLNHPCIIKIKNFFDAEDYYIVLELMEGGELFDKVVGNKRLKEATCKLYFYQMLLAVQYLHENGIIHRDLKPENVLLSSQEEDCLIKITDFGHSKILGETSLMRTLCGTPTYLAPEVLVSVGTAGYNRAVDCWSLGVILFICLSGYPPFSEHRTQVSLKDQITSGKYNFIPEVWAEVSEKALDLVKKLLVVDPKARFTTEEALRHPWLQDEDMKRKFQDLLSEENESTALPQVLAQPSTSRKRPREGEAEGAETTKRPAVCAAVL

[29] = test system: HT-29; assay: Antitumor activity against human HT-29 cells xenografted in female BALB/c mouse assessed as tumor growth inhibition at 30 mg/kg, iv administered once daily for 21 days and measured after 3 days by vernier calipers analysis; details: HT-29, 576 h, read-out: TGI
[30] = test system: HT-29; assay: Antitumor activity against human HT-29 cells xenografted in female BALB/c mouse assessed as tumor growth inhibition at 30 mg/kg, iv administered once daily for 21 days and measured after 3 days in presence of gemcitabine by vernier calipers analysis; details: HT-29, 576 h, read-out: TGI
[31] = Toxicity in female BALB/c mouse xenografted with human HT-29 cells assessed as change in body weight at 30 mg/kg, iv administered once daily for 21 days and measured after 3 days; format: organism-based; details: in vivo, 576 h, time 24 day
[32] = test system: HT-29; assay: cells; details: Homo sapiens, HT-29, 72 h
Description: Antiproliferative activity against human HT-29 cells assessed as inhibition of cell proliferation incubated for 72 hrs by CCK-8 assay

[33] = test system: A549; assay: cells; details: Homo sapiens, A549, 72 h
Description: Antiproliferative activity against human A549 cells assessed as inhibition of cell proliferation incubated for 72 hrs by CCK-8 assay

[34] = test system: OVCAR-3; assay: cells; details: Homo sapiens, OVCAR-3, 72 h
Description: Antiproliferative activity against human OVCAR-3 cells assessed as inhibition of cell proliferation incubated for 72 hrs by CCK-8 assay

[35] = test system: HL-60; assay: cells; details: Homo sapiens, HL-60, 72 h
Description: Antiproliferative activity against human HL-60 cells assessed as inhibition of cell proliferation incubated for 72 hrs by CCK-8 assay

[36] = test system: HCT-116; assay: cells; details: Homo sapiens, HCT-116, 72 h
Description: Antiproliferative activity against human HCT-116 cells assessed as inhibition of cell proliferation incubated for 72 hrs by CCK-8 assay

[37] = test system: A2780; assay: cells; details: Homo sapiens, A2780, 72 h
Description: Antiproliferative activity against human A2780 cells assessed as inhibition of cell proliferation incubated for 72 hrs by CCK-8 assay

[38] = test system: MDA-MB-468; assay: cells; details: Homo sapiens, MDA-MB-468, 72 h
Description: Antiproliferative activity against human MDA-MB-468 cells assessed as inhibition of cell proliferation incubated for 72 hrs by CCK-8 assay

[39] = test system: HT-29; assay: cells; details: Homo sapiens, HT-29, 72 h; remark: listed apart in the source
Description: Synergistic antiproliferative activity against human HT-29 cells assessed as inhibition of cell proliferation incubated for 72 hrs in presence of gemcitabine by CCK-8 assay

[40] = test system: HT-29; assay: cells; details: Homo sapiens, HT-29, 72 h; remark: listed apart in the source

Which results are given for `N#Cc1ncc(Nc2ncc3c(ccc(=O)n3CC(F)F)n2)cc1N[C@@H]1CCNC1`?
IC50 [1]: 202 nM; remaining at 0 min [2]: 100%; remaining at 5 min [3]: 60.1%; remaining at 0.25 h [4]: 24.4%; remaining at 0.5 h [5]: 8.93%; remaining at 1 h [6]: 1.96%; half-life [7]: 0.18 h; microsomal CLint [8]: 129 µL/min/mg; CLint scaled [9]: 116 mL/min/kg; C0 at 24 h [10]: 860 ng/mL; Cmax [11]: 526 ng/mL; Cmax [12]: 81.1 ng/mL; half-life [13]: 5.7 h; half-life [14]: 1.51 h; Tmax [15]: 4.8 min; Tmax [16]: 4.8 min; AUC(0-t) at 24 h [17]: 327 ng·h/mL; AUC(0-t) at 24 h [18]: 40.7 ng·h/mL; AUC(0-inf) [19]: 341 ng·h/mL; AUC(0-inf) [20]: 47.3 ng·h/mL; MRT last at 24 h [21]: 2.67 h; MRT last at 24 h [22]: 1 h; MRT inf [23]: 3.91 h; MRT inf [24]: 1.65 h; clearance [25]: 98.4 mL/min/kg; Vd [26]: 23.3 L/kg; bioavailability [27]: 2.77%; inhibition [28]: 22%; inhibition in vivo at 30 mg/kg [29]: 20.6%; inhibition in vivo at 30 mg/kg [30]: 42.8%; Activity [31]: Non-Toxic; IC50 [32]: 1170 nM; IC50 [33]: > 10000 nM; IC50 [34]: 606 nM; IC50 [35]: > 10000 nM; IC50 [36]: > 10000 nM; IC50 [37]: > 10000 nM; IC50 [38]: > 10000 nM; IC50 [39]: 63.5 nM; IC50 [40]: 63.5 nM
